Measured values taken from the NIST ThermoML archive (doi:10.1016/j.jct.2019.03.027).
“And” between values parts separate entries of the source, which are not always exact repeats. Identical values can stand only once.

Settings: Liquid, Closed cell (Static) method

O=C=O [carbon dioxide]
Settings | vapor or sublimation pressure
273.16 K | 3485.7 kPa
273.17 K | 3485.9 kPa
278.2 K | 3977 kPa and 3975 kPa
283.15 K | 4500.5 kPa and 4502 kPa
288.15 K | 5090.5 kPa and 5087 kPa
293.14 K | 5726.5 kPa and 5726.4 kPa
298.15 K | 6436.1 kPa and 6430.1 kPa
303.15 K | 7214.4 kPa
303.19 K | 7212.8 kPa
303.64 K | 7290.9 kPa
303.65 K | 7297.4 kPa
303.85 K | 7329 kPa and 7326.1 kPa
304.04 K | 7360.5 kPa and 7358.8 kPa
